“And” between values parts separate entries of the source, which are not always exact repeats. Equal entries are not always repeated. Where two headings read alike, the source gives them in different places.
Tests used:
[1] = given orally, cited from earlier work
[2] = test system: osteoid volume; settings: beagle dogs; cited from earlier work
[3] = test system: peripheral serotonin production; assay: Pilot study of tryptophan hydroxylase inhibitors on peripheral serotonin production in ovariectomized mice, Example 12; format: in vivo; settings: for effect on serotonin levels: oral (gavage) twice a day, dose not given
Protocol: (§1) 6-week old C57Bl/6 inbred female mice, weighing 12-14 g, were used in the experiments. Animals were housed under 12 h light/12 h dark conditions in a room with controlled temperature (22° C.) and humidity (60%). Mice had ad libitum access to food and water, and were used after a minimum of 4 days of acclimatization to the housing conditions. All experiments were conducted following Columbia University Guidelines for the Animal Use and Care of laboratory mice.
Animals were separated into different groups one day prior to the experiments. Mice were ovariectomized (OVX) under anaesthesia (Avertin). Compounds were fed orally (Gavage) twice a day at 1700 h and at 1100 h for the pilot study while for the long term study compounds were given at 1700 h once a day. […] This route creates two potential barriers for the compound to reach the brain. […] Control animals received the same volume of vehicle. Blood was collected through heart puncture on isofluorane-anaesthesized animals, allowed to clot for 5 minutes on ice and then serum was separated, snap chilled in liquid nitrogen and frozen at −80° C. till analyzed. Mice were observed daily for any physical or behavioral abnormality during the course of investigation.
• Group 1: Vehicle • Group 2: Compound 1 • Group 3: Compound 2 • Group 4: Compound 3 • Group 5: Compound 4 (LP-533401) Experiment II: Effect of Compounds 1 and 4 on Protection from OVX-Induced Bone Loss Protocol 1: Gavage Feeding of the Compounds Will be Started 1 Day after OVX for 6 Weeks • Group 1: Sham treatment • Group 2: OVX • Group 3: OVX+Compound 1 (250 mg/kg) • Group 4: OVX+Compound 1 (500 mg/kg) • Group 5: OVX+Compound 4 (250 mg/kg) Protocol 2: Gavage Feeding of the Compounds Will be Started 2 Weeks after OVX for 6 Weeks • Group 1: Sham treatment • Group 2: OVX • Group 3: OVX+Compound 1 (250 mg/kg) • Group 4: OVX+Compound 1 (500 mg/kg) • Group 5: OVX+Compound 4 (250 mg/kg) Protocol 3: Gavage Feeding of the Compounds Will be Started 4 Weeks after OVX for 6 Weeks • Group 1: Sham treatment • Group 2: OVX • Group 3: OVX+Compound 1 (250 mg/kg) • Group 4: OVX+Compound 1 (500 mg/kg) • […] Serotonin Measurement in Serum
The Serotonin ELISA kit obtained from the Fitzgerald company was used to measure derivatized serotonin from serum. Derivatization is part of the sample preparation. Serotonin present in the serum was first quantitatively acylated using the acylation reagent into N-Acylserotonin. The principle of the assay is based on competitive ELISA, wherein serotonin that is bound to the solid phase of the plate and the N-acylserotonin compete for the fixed number of antiserum binding sites. When the reaction is in equilibrium, free antigen and free antigen-antiserum complexes are removed by washing. The antibody bound to the solid phase serotonin is then detected by anti-rabbit/peroxidase. The substrate TMB/Peroxidase reaction is read at 450 nm. The amount of antibody bound to the solid phase serotonin is inversely proportional to the concentration of serotonin in the sample.
We used Catechol-3,6-bis methyleneiminodiacetic acid [(CBMIDA) Compound 1: basic structure is a EDTA-like compound and the catechol ring is at the center)] synthesized at the Columbia University Chemistry division and para-Chlorophenylalanine (pCPA) obtained from Sigma Aldrich Corp. for our experiments. Compounds were dissolved with twice molar solution of NaHCO3 in water and given to mice orally at 250 and 500 mg/kg/dose. Compounds 2 and 3 were dissolved in water.

[4] = test system: rat calvarial-derived osteoblasts; settings: in vitro; cited from earlier work
[5] = test system: peripheral serotonin; assay: Effect of oral CBMIDA on peripheral serotonin production in mice (serum serotonin ELISA), Example 1; format: in vivo; settings: for reduction of peripheral serotonin measured in serum: 4 week old mice
Protocol: The ability of selective TPH1 inhibitor CBMIDA to reduce peripheral serotonin measured in serum was tested. Either 250 or 500 mg/kg doses of CBMIDA were administered orally twice in 20 hours to 4 week old mice, 4-5 mice per group. As a control, some mice were untreated and some received 250 mg/kg pCPA orally. […] CBMIDA has been reported to be an EDTA analog that increases osteoid volume in beagle dogs and induces proliferation of rat calvarial-derived osteoblasts in vitro (Xie, et al., Bioorganic & Medicinal Chemistry Letters 15 (2005) 3267-3270, incorporated herein by reference in its entirety).
as §1, with “One month” for “6-week”, “male” for “female”, “15-16 g” for “12-14 g,”
Before the experiments, animals were separated into individual cages one day prior to the experiment. Compounds were fed orally (gavage) to the mouse, calculated according to the weight of the mouse, twice a day at 1700 h and at 1100 h. […] This route created two potential barriers for the compound to reach the brain. […] Control animals received the same volume of vehicle. Blood was collected through heart puncture on isofluorane-anaesthesized animals and allowed to clot for 5 minutes on ice. The serum was separated, snap chilled in liquid nitrogen and frozen at −80° C. till analyzed. Brainstems from all the animals were collected and processed for brain serotonin measurement through HPLC.
The Serotonin ELISA kit obtained from the Fitzgerald company was used to measure derivatized serotonin from serum. Derivatization is part of the sample preparation. Serotonin present in the serum was first quantitatively acylated into N-Acylserotonin using the acylation reagent. The principle of the assay is based on competitive ELISA, wherein serotonin that is bound to the solid phase of the plate and the N-acylserotonin compete for the fixed number of antiserum binding sites. When the reaction is in equilibrium, free antigen and free antigen-antiserum complexes are removed by washing.
The antibody bound to the solid phase serotonin is then detected using antirabbit/peroxidase. The substrate TMB/Peroxidase reaction is read at 450 nm. The amount of antibody bound to the solid phase serotonin is inversely proportional to the concentration of serotonin in the sample.
Catechol-3,6-bis methyleneiminodiacetic acid (CBMIDA) (basic structure is an EDTA-like compound and the catechol ring is at the centre) synthesized at the Columbia University Chemistry division, and para-chlorophenylalanine (pCPA) obtained from Sigma Aldrich Corp. were used. Each compound was dissolved with twice molar solution of NaHCO3 in water and given to mouse orally at 250 and 500 mg/kg/dose.

[6] = test system: brain-derived serotonin; settings: mice, twice per day over 3-4 days, about 30-90 mg/kg; cited from earlier work
[7] = test system: Serotonin levels in the small intestine; settings: mice, twice per day over 3-4 days, about 30-90 mg/kg; after six consecutive doses; cited from earlier work
[8] = target: rb 5-HT1B receptors (Oryctolagus cuniculus, UniProt P49144); settings: cited from earlier work
Sequence of rb 5-HT1B receptors (P49144 whole entry): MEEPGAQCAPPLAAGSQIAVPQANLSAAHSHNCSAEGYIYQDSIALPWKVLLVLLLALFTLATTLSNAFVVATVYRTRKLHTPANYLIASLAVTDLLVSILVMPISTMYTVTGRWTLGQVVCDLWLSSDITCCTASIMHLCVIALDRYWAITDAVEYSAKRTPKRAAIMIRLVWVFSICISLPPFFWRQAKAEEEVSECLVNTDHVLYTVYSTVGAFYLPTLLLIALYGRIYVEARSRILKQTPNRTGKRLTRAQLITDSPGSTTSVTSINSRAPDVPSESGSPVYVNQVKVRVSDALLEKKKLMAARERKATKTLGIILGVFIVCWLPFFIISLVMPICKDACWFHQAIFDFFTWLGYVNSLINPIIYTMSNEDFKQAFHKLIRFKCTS

[9] = test system: primary osteoblasts; assay: Real-time PCR of cyclin and osteoblast-specific gene expression in primary osteoblasts treated with serotonin; format: cell-based, mouse; settings: serotonin 50 to 100 μM, 24 hr, versus vehicle, FIG. 8B
Protocol: To test whether serotonin regulates the expression of cyclins in osteoblasts, a real-time PCR analysis of cyclin expression in primary osteoblasts treated with serotonin or vehicle was performed. […] In contrast, expression of Runx2, Osteocalcin and Type I collagen was not modified (FIG. 8B).
Calvaria osteoblasts were extracted by triple collagenase/trypsine digestion from 4 day-old CD1 pups and differentiated with ascorbic acid as previously described (Ducy et al., 2000, Cell 100:197-207).
(§2) Osteoblasts were treated in serum-free medium with vehicle or Serotonin (50 to 100 μM, Sigma) for 24 hr. Total RNA were extracted with Trizol (Invitrogen). cDNA were generated using the ABI Reverse transcriptase system and random hexanucleotide primers. Real-time PCR was performed using superarray primers on a Stratagene real time PCR cycler and Actin expression was used as endogenous control. Chromatin immunoprecipitation assays (ChIP) were performed by standard procedures using primary osteoblasts. Microarray analysis was performed as described previously (Glass et al., 2005, Dev. Cell 8:751-764).

[10] = test system: CREB; assay: CREB phosphorylation (Western blot) and CREB binding to Cyclin D1 promoter (ChIP) in primary osteoblasts treated with serotonin; format: cell-based, mouse
Protocol: Decreased expression of Cyclin D1 is a major feature of both Lrp5 deficiency and serotonin treatment of osteoblasts (FIGS. 1 and 8). One transcription factor that is known to modulate the expression of cyclin genes and is expressed in osteoblasts is CREB (Fu et al., 2005, Cell 122:803-815). Therefore, whether serotonin could decrease CREB activity in these cells was tested. […] Furthermore, a CREB binding site in the Cyclin D1 mouse promoter was identified and it was shown using ChIP assays that serotonin decreased binding of CREB to this promoter (FIG. 9B). These two observations raise the hypothesis that CREB could be mediating serotonin action on osteoblasts.
as §2
Osteoblasts were treated in serum-free medium with vehicle or Serotonin (50 to 100 μM, Sigma) for 24 hr. […]

For `O=C(O)CN(CC(=O)O)Cc1ccc(CN(CC(=O)O)CC(=O)O)c(O)c1O` [CBMIDA, Catechol-3,6-bis methyleneiminodiacetic acid], the “share of the oral amount transported into the circulation (blood)” value [1] is listed as 3-5% and 5-10%, the “share of the oral amount transported into the circulation (blood)” value ([1]; listed as Compound 1) is listed as 5-10% and the osteoid volume [2] is listed as “increases”. The “decrease of serotonin serum levels” value ([3]; 250 mg/kg, oral, compared with 500 mg/kg) was “lesser extent”, the “serotonin serum levels decreased to % below normal” value ([3]; 500 mg/kg twice daily, oral, FIG. 15) was 80% and the “dose response of serotonin levels” value ([3]; different doses compared to control animals, FIG. 15) was “dose response curve”. For the same compound, the proliferation of osteoblasts [4] was “induces”, the “reduction of peripheral serotonin measured in serum” value ([5]; 250 mg/kg orally twice in 20 hours) was about 45% and the “decrease of serotonin serum levels” value ([5]; 250 mg/kg, oral, compared with 500 mg/kg, FIG. 11) was “lesser extent”. For the same compound, the “reduction of peripheral serotonin measured in serum” value ([5]; 500 mg/kg orally twice in 20 hours) was “about 80%”, the “serotonin serum levels decreased to % below normal” value ([5]; 500 mg/kg twice daily, oral, FIG. 11) was 80% and the “dose response of serum serotonin reduction” value ([5]; 250 and 500 mg/kg versus control animals) was “dose response curve”. The “peripheral serotonin upon oral feeding” value ([5]; FIG. 11 legend) was “reduces”.

For `NC(=O)CN(CC(=O)O)Cc1ccc(CN(CC(N)=O)CC(=O)O)c(O)c1O` [Compound 2], the “effect on serotonin levels” value ([3]; pilot study) was “minimal effect”.

For `CN1CCc2cccc3c2[C@H]1Cc1cc(CN(CC(=O)O)CC(=O)O)c(O)c(O)c1-3` [Compound 3], the “effect on serotonin levels” value ([3]; pilot study) was “decreased the serotonin levels dramatically” and the “toxicity to the animals (looked very lethargic and sick)” value ([3]; oral, pilot study) was “toxic”.

In the case of `CCOC(=O)[C@@H](N)Cc1ccc(-c2cc(OC(c3ccc(-c4cccc(F)c4)cc3)C(F)(F)F)nc(N)n2)cc1` (stereo partly drawn) [LP-615819], the brain-derived serotonin [6] is listed as “unchanged” and the “Serotonin levels in the small intestine” value [7] is listed as “significantly lowered”.

For `O=C(c1ccc(F)cc1)C1CCN(CCn2c(=O)[nH]c3ccccc3c2=O)CC1` [ketanserin], the behaviour as antagonist [8] is given as “as silent, competitive”.

For `CSc1ccc2c(c1)C(N1CCN(C)CC1)Cc1ccccc1S2` (stereo not drawn) [methiothepin], the behaviour as antagonist [8] is given as “as silent, competitive”.

With `NCCc1c[nH]c2ccc(O)cc12` [serotonin, 5-hydroxytryptamine] the “expression of Cyclin D1 and D2” value [9] was “decreased”, the “expression of Runx2, Osteocalcin and Type I collagen” value [9] was “not modified” and the CREB phosphorylation ([10]; FIG. 9A) was “significantly decreased”. The “binding of CREB to the Cyclin D1 promoter (ChIP)” value ([10]; FIG. 9B) was “decreased”.

From patent US8759364B2, “Methods of treating bone mass diseases” (The Trustees of Columbia University in the City of New York, priority 2008, dated 2014)
